The results in this text go back to patent US20160280688A1, “SUBSTITUTED PHENYLALANINE DERIVATIVES” (BAYER PHARMA AKTIENGESELLSCHAFT, priority 2013, published 2016).

Counter-ions that a name gives are not always drawn.

Holding throughout (format): biochemical
The target in one experiment is T1, human factor XIa (Homo sapiens, UniProt P03951).
T1 construct: purchased Kordia
In words: Measurement of FXIa inhibition (fluorogenic peptide substrate Boc-Glu(OBzl)-Ala-Arg-AMC). Conditions: factor XIa from Kordia, 15 min preincubation, 30 min at 22° C., fluorescence. The protocol:
To determine the factor XIa inhibition of the substances according to the invention, a biochemical test system is used which utilizes the reaction of a peptidic factor XIa substrate to determine the enzymatic activity of human factor XIa. Here, factor XIa cleaves from the peptic factor XIa substrate the C-terminal aminomethylcoumarin (AMC), the fluorescence of which is measured. The determinations are carried out in microtitre plates.
(§1) Test substances are dissolved in dimethyl sulphoxide and serially diluted in dimethyl sulphoxide (3000 μM to 0.0078 μM; resulting final concentrations in the test: 50 μM to 0.00013 μM). In each case 1 μl of the diluted substance solutions are placed into the wells of white microtitre plates from Greiner (384 wells). Subsequently, the following are added successively: 20 μl of assay buffer (50 mmol/l Tris buffer pH 7.4; 100 mmol/l sodium chloride; 5 mmol/l calcium chloride; 0.1% bovine serum albumin) and 20 μl of factor XIa from Kordia (0.45 nM in assay buffer). After 15 min of incubation, the enzyme reaction is started by addition of 20 μl of the factor XIa substrate Boc-Glu(OBzl)-Ala-Arg-AMC dissolved in assay buffer (10 μM in assay buffer) from Bachem, the mixture is incubated at room temperature (22° C.) for 30 min and fluorescence is then measured (excitation: 360 nm, emission: 460 nm). The measured emissions of the test batches with test substance are compared to those of control batches without test substance (only dimethyl sulphoxide instead of test substance in dimethyl sulphoxide), and IC50 values are calculated from the concentration/activity relationships.

The subject of another experiment is human and animal plasma. Kind of experiment: Determination of the anticoagulatory activity: activated partial thromboplastin time (aPTT) in plasma. The following applies: in vitro in plasma, C.K. Prest kit, 3 min at 37° C. As for the experimental part: The anticoagulatory activity of the test substances is determined in vitro in human and animal plasma (for example mouse, rat, rabbit, pig and dog plasma). To this end, blood is drawn off in a mixing ratio of sodium citrate/blood of 1:9 using a 0.11 molar sodium citrate solution as receiver. Immediately after the blood has been drawn off, it is mixed thoroughly and centrifuged at about 4000 g for 15 minutes. The supernatant is pipetted off.
The activated partial thromboplastin time (aPTT) is determined in the presence of varying concentrations of test substance or the corresponding solvent using a commercial test kit (C.K. Prest from Diagnostica Stago). The test compounds are incubated with the plasma and the PTT reagent (cephalin, kaolin) at 37° C. for 3 minutes. Coagulation is then started by addition of a 25 mM aqueous calcium chloride solution, and the time when coagulation occurs is determined. The concentration of test substance which brings about a 1.5-fold extension of the aPTT is determined Activity data from this test are listed in Table B below: […]

A further experiment concerns the target T2, human plasmin (Homo sapiens, UniProt P00747).
T2 construct: purchased Kordia
Kind of experiment: Measurement of plasmin inhibition (fluorogenic peptide substrate MeOSuc-Ala-Phe-Lys-AMC). The following applies: plasmin from Kordia, 15 min preincubation, 30 min at 22° C., fluorescence. As for the experimental part:
The plasmin inhibition of the inventive substances is determined using a biochemical test system which utilizes the reaction of a peptidic plasmin substrate to determine the enzymatic activity of human plasmin. Here, plasmin cleaves from the peptic plasmin substrate the C-terminal aminomethylcoumarin (AMC), the fluorescence of which is measured. The determinations are carried out in microtitre plates.
as §1, with “plasmin” for “factor XIa”, “(0.3 μg/ml” for “(0.45 nM”, “MeOSuc-Ala-Phe-Lys-AMC” for “Boc-Glu(OBzl)-Ala-Arg-AMC”, “(150” for “(10”, “ICso” for “IC50”

T1 sequence (P03951 388-625 limits assumed): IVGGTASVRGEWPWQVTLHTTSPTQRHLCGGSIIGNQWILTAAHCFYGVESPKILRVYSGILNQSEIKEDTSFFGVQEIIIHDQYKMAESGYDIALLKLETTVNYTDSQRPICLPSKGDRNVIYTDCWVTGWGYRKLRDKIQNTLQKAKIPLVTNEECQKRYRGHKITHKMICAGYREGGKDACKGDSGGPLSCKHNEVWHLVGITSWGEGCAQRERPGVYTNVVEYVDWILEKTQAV
T1 sequence (P03951 19-387 partner limits assumed): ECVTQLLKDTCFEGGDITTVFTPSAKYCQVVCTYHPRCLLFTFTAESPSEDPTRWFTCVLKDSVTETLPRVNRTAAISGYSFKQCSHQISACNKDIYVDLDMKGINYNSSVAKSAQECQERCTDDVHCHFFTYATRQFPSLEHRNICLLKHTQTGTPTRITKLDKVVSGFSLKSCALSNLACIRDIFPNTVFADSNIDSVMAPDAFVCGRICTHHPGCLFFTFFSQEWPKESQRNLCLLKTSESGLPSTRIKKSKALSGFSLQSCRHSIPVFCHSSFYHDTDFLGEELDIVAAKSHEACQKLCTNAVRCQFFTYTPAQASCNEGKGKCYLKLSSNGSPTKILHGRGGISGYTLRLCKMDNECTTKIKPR
T2 sequence (P00747 581-810 limits assumed): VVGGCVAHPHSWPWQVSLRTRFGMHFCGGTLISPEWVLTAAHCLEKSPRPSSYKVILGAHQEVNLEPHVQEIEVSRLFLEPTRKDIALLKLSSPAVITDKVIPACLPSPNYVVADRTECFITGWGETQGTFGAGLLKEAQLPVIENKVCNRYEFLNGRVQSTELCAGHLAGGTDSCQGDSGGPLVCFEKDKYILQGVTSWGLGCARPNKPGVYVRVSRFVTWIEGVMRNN
T2 sequence (P00747 97-580 partner limits assumed): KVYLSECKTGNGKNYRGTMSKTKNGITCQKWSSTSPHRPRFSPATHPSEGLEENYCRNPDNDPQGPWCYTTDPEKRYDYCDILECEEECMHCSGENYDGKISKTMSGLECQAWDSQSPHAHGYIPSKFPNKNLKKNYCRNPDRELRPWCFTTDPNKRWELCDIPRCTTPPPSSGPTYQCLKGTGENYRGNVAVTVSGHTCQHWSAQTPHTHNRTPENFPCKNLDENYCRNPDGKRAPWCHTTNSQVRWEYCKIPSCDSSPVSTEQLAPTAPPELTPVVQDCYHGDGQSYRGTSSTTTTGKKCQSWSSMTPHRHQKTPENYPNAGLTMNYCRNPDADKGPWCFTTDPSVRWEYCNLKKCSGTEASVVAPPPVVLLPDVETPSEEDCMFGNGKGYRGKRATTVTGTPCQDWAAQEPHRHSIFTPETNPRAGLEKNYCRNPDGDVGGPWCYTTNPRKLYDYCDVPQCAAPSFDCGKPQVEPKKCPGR

For `NC[C@H]1CC[C@H](C(=O)N[C@@H](Cc2ccc(-c3cc4nc(C5CC5)[nH]c4cc3Cl)cc2)C(=O)Nc2ccc3[nH]c(=O)[nH]c3c2)CC1` [Example 23, N-alpha-{[trans-4-(Aminomethyl)cyclohexyl]carbonyl}-4-(6-chloro-2-cyclopropyl-1H-benzimidazol-5-yl)-N-(2-oxo-2,3-dihydro-1H-benzimidazol-5-yl)-L-phenylalaninamide hydrochloride], the figures for the IC50 against human factor XIa and at human plasmin were 2.3 nM and 0.95 nM, respectively. Moreover, the “aPTT (concentration of test substance which brings about a 1.5-fold extension of the aPTT)” value with human and animal plasma worked out at 0.27 µmol/L.
Taken in the same sequence, the figures for `Cc1cc2[nH]c(C(C)C)nc2cc1-c1ccc(C[C@H](NC(=O)[C@H]2CC[C@H](CN)CC2)C(=O)Nc2ccc3nc(C(F)(F)C(F)(F)F)[nH]c3c2)cc1` [Example 25, N-alpha-{[trans-4-(Aminomethyl)cyclohexyl]carbonyl}-4-(2-isopropyl-6-methyl-1H-benzimidazol-5-yl)-N-[2-(pentafluoroethyl)-1H-benzimidazol-6-yl]-L-phenylalaninamide hydrochloride] were 13 nM, 1.7 nM and 0.96 µmol/L.
With `Cc1c(-c2ccc(C[C@H](NC(=O)[C@H]3CC[C@H](CN)CC3)C(=O)Nc3ccc4[nH]c(=O)[nH]c4c3)cc2)cc2nc(C3CCC3)[nH]c2c1F` [Example 27, N-alpha-{[trans-4-(Aminomethyl)cyclohexyl]carbonyl}-4-(2-cyclobutyl-7-fluoro-6-methyl-1H-benzimidazol-5-yl)-N-(2-oxo-2,3-dihydro-1H-benzimidazol-5-yl)-L-phenylalaninamide], the results for the IC50 on human factor XIa and on human plasmin were 0.9 nM and 0.45 nM, respectively. In the experiment with human and animal plasma, the “aPTT (concentration of test substance which brings about a 1.5-fold extension of the aPTT)” value was 0.16 µmol/L.
Turning to `Cc1cc2nc[nH]c2cc1-c1ccc(C[C@H](NC(=O)[C@H]2CC[C@H](CN)CC2)C(=O)Nc2ccc3c(=O)[nH][nH]c3c2)cc1` [Example 30, N-alpha-{[trans-4-(Aminomethyl)cyclohexyl]carbonyl}-4-(5-methyl-1H-benzimidazol-6-yl)-N-(3-oxo-2,3-dihydro-1H-indazol-6-yl)-L-phenylalaninamide hydrochloride], the IC50 stood at 1.7 nM at human factor XIa and 5.9 nM at human plasmin. The “aPTT (concentration of test substance which brings about a 1.5-fold extension of the aPTT)” value in the experiment with human and animal plasma (hydrochloride) was 0.07 µmol/L.
On to `CC(C)c1nc2cc(C(F)(F)F)c(-c3ccc(C[C@H](NC(=O)[C@H]4CC[C@H](CN)CC4)C(=O)Nc4ccc5[nH]c(=O)[nH]c5c4)cc3)cc2[nH]1` [Example 31, N-alpha-{[trans-4-(Aminomethyl)cyclohexyl]carbonyl}-4-[2-isopropyl-5-(trifluoromethyl)-1H-benzimidazol-6-yl]-N-(2-oxo-2,3-dihydro-1H-benzimidazol-5-yl)-L-phenylalaninamide hydrochloride], for which the IC50 on human factor XIa is 3.1 nM; against human plasmin, 2.1 nM. In the experiment with human and animal plasma, the “aPTT (concentration of test substance which brings about a 1.5-fold extension of the aPTT)” value worked out at 0.07 µmol/L.
The corresponding values for `CC(C)n1[nH]c2cc(-c3ccc(C[C@H](NC(=O)[C@H]4CC[C@H](CN)CC4)C(=O)Nc4ccc5cn[nH]c5c4)cc3)ccc2c1=O` [Example 32, N-alpha-{[trans-4-(Aminomethyl)cyclohexyl]carbonyl}-N-1H-indazol-6-yl-4-(2-isopropyl-3-oxo-2,3-dihydro-1H-indazol-6-yl)-L-phenylalaninamide hydrochloride] are 28 nM, 8.7 nM and 0.43 µmol/L.
With `CC(C)n1[nH]c2cc(-c3ccc(C[C@H](NC(=O)[C@H]4CC[C@H](CN)CC4)C(=O)Nc4ccc5[nH]c(=O)[nH]c5c4)cc3)ccc2c1=O` [Example 33, N-alpha-{[trans-4-(Aminomethyl)cyclohexyl]carbonyl}-4-(2-isopropyl-3-oxo-2,3-dihydro-1H-indazol-6-yl)-N-(2-oxo-2,3-dihydro-1H-benzimidazol-5-yl)-L-phenylalaninamide hydrochloride], the IC50 on human factor XIa is 17 nM; against human plasmin, 5.9 nM. In addition, in the experiment on human and animal plasma, the “aPTT (concentration of test substance which brings about a 1.5-fold extension of the aPTT)” value is 0.1 µmol/L.
For the compound `Cc1cc2c(=O)n(C(C)C)[nH]c2cc1-c1ccc(C[C@H](NC(=O)[C@H]2CC[C@H](CN)CC2)C(=O)Nc2ccc3[nH]c(=O)[nH]c3c2)cc1` [Example 34, N-alpha-{[trans-4-(Aminomethyl)cyclohexyl]carbonyl}-4-(2-isopropyl-5-methyl-3-oxo-2,3-dihydro-1H-indazol-6-yl)-N-(2-oxo-2,3-dihydro-1H-benzimidazol-5-yl)-L-phenylalaninamide hydrochloride], the IC50 at human factor XIa was 1.5 nM; against human plasmin, 1.7 nM. In addition, the “aPTT (concentration of test substance which brings about a 1.5-fold extension of the aPTT)” value with human and animal plasma stood at 0.11 µmol/L.
`CC(C)c1nc2c(F)c(F)c(-c3ccc(C[C@H](NC(=O)[C@H]4CC[C@H](CN)CC4)C(=O)Nc4ccc5[nH]c(=O)[nH]c5c4)cc3)cc2[nH]1` [Example 35, N-alpha-{[trans-4-(Aminomethyl)cyclohexyl]carbonyl}-4-(4,5-difluoro-2-isopropyl-1H-benzimidazol-6-yl)-N-(2-oxo-2,3-dihydro-1H-benzimidazol-5-yl)-L-phenylalaninamide hydrochloride]: the IC50 is 6.9 nM at human factor XIa and 1.5 nM against human plasmin. Further, the “aPTT (concentration of test substance which brings about a 1.5-fold extension of the aPTT)” value in the experiment on human and animal plasma came to 0.54 µmol/L.
In the case of `Cc1cc2nc(C3CC3)nn2cc1-c1ccc(C[C@H](NC(=O)[C@H]2CC[C@H](CN)CC2)C(=O)Nc2ccc3[nH]c(=O)[nH]c3c2)cc1` [Example 36, N-alpha-{[trans-4-(Aminomethyl)cyclohexyl]carbonyl}-4-(2-cyclopropyl-7-methyl[1,2,4]triazolo[1,5-a]pyridin-6-yl)-N-(2-oxo-2,3-dihydro-1H-benzimidazol-5-yl)-L-phenylalaninamide hydrochloride], the IC50 was found to be 3.6 nM against human factor XIa and 1.2 nM against human plasmin. Besides, the “aPTT (concentration of test substance which brings about a 1.5-fold extension of the aPTT)” value in the experiment with human and animal plasma came out at 0.08 µmol/L.
For the compound `Cc1cc2nc(C(C)C)[nH]c2nc1-c1ccc(C[C@H](NC(=O)[C@H]2CC[C@H](CN)CC2)C(=O)Nc2ccc3[nH]c(=O)[nH]c3c2)cc1` [Example 37, N-alpha-{[trans-4-(Aminomethyl)cyclohexyl]carbonyl}-4-(2-isopropyl-6-methyl-3H-imidazo[4,5-b]pyridin-5-yl)-N-(2-oxo-2,3-dihydro-1H-benzimidazol-5-yl)-L-phenylalaninamide hydrochloride], the figures for the half-inhibitory concentration (IC50) on human factor XIa and on human plasmin were 4.9 nM and 0.5 nM, respectively. The “aPTT (concentration of test substance which brings about a 1.5-fold extension of the aPTT)” value in the experiment on human and animal plasma turned out to be 0.06 µmol/L.

One may read the IC50 as the concentration that gives 50% inhibition. Lower therefore signals inhibition by little substance.
